# Measurements from patent US20250368608A1, “SELECTIVE HDAC6 INHIBITOR” (ROYAL COLLEGE OF SURGEONS IN IRELAND, priority 2021, published 2025).
# System: JJN3 cell line
# Assay: Apoptosis assay using JJN3 cell line (annexin V/PI)
# Assay type: cell-based
# Conditions: Homo sapiens, JJN-3; JJN3 cell line, 24 h of treatment
# Description: Apoptosis was assessed by Annexin V/propidium iodide (Biolegend, 640906, Sigma P4170) staining using LSRII Biosciences, Facscanto. Cell viability was detected by CellTiter-Glo® (My Bio, G3582) according to the manufacture's protocol. Mitochondrial membrane potential was measured by adding Tetramethylrhodamine, ethyl ester (TMRE) (Biosciences, T669) at 20 nM for 30 minutes at 37° C. and assessed by flow cytometry with FACS CANTO II. […]
row,IC50 [µM],SMILES
1,> 10,"O=C(CSC1=N[C@@H]2CCCC[C@H]2N1)N1CCCCC1 (racemic) [TTC-03, (±)-trans-2-((2-oxo-2-(piperidin-1-yl)ethyl)thio)-3a,4,5,6,7,7a-hexahydro-1H-benzo[d]imidazol-3-ium chloride]"
2,> 10,"CCN(CC)C(=O)CSC1=N[C@@H]2CCCC[C@H]2N1 (racemic) [TTC-04, (±)-trans-2-((2-(diethylamino)-2-oxoethyl)thio)-3a,4,5,6,7,7a-hexahydro-1H-benzo[d]imidazol-3-ium chloride]"
3,< 10,"O=C(CSC1=N[C@@H]2CCCC[C@H]2N1)N1CCSCC1 (racemic) [TTC-05, (±)-trans-2-((2-oxo-2-thiomorpholinoethyl)thio)-3a,4,5,6,7,7a-hexahydro-1H-benzo[d]imidazol-3-ium chloride]"
4,> 10,"CS(=O)(=O)N1CCN(C(=O)CSC2=N[C@@H]3CCCC[C@H]3N2)CC1 (racemic) [TTC-06, (±)-trans-2-((2-(4-(methylsulfonyl)piperazin-1-yl)-2-oxoethyl)thio)-3a,4,5,6,7,7a-hexahydro-1H-benzo[d]imidazol-3-ium chloride]"
5,> 10,"O=C(CSC1=N[C@@H]2CCCC[C@H]2N1)N1CCN(c2ccccc2)CC1 (racemic) [TTC-07, (±)-trans-2-((2-oxo-2-(4-phenylpiperazin-1-yl)ethyl)thio)-3a,4,5,6,7,7a-hexahydro-1H-benzo[d]imidazol-3-ium chloride]"
6,> 10,"O=C(CSC1=N[C@@H]2CCCC[C@H]2N1)N1CCC(O)CC1 (racemic) [TTC-15, (±)-trans-2-((2-(4-hydroxypiperidin-1-yl)-2-oxoethyl)thio)-3a,4,5,6,7,7a-hexahydro-1H-benzo[d]imidazol-3-ium chloride]"
7,> 10,"O=C(O)C1CCN(C(=O)CSC2=N[C@@H]3CCCC[C@H]3N2)CC1 (racemic) [TTC-16, (±)-trans-2-((2-(4-carboxypiperidin-1-yl)-2-oxoethyl)thio)-3a,4,5,6,7,7a-hexahydro-1H-benzo[d]imidazol-3-ium chloride]"
8,> 10,"O=C1CN(C(=O)CSC2=N[C@@H]3CCCC[C@H]3N2)CCN1 (racemic) [TTC-17, (±)-trans-2-((2-oxo-2-(3-oxopiperazin-1-yl)ethyl)thio)-3a,4,5,6,7,7a-hexahydro-1H-benzo[d]imidazol-3-ium chloride]"
9,> 10,"O=C(CSC1=N[C@@H]2CCCC[C@H]2N1)Nc1ccccc1 (racemic) [TTC-18, (±)-trans-2-((2-oxo-2-(phenylamino)ethyl)thio)-3a,4,5,6,7,7a-hexahydro-1H-benzo[d]imidazol-3-ium chloride]"
10,> 10,"CCC1CCN(C(=O)CSC2=N[C@@H]3CCCC[C@H]3N2)CC1 (racemic) [TTC-28, (±)-trans-2-((2-(4-ethylpiperidin-1-yl)-2-oxoethyl)thio)-3a,4,5,6,7,7a-hexahydro-1H-benzo[d]imidazol-3-ium chloride]"
11,< 10,"CCCC1CCN(C(=O)CSC2=N[C@@H]3CCCC[C@H]3N2)CC1 (racemic) [TTC-29, (±)-trans-2-((2-oxo-2-(4-propylpiperidin-1-yl)ethyl)thio)-3a,4,5,6,7,7a-hexahydro-1H-benzo[d]imidazol-3-ium chloride]"

row,SMILES,IC50 [µM]
1,"O=C(CSC1=N[C@@H]2CCCC[C@H]2N1)N1CCOCC1 (racemic) [TTC-01, (±)-trans-2-((2-morpholino-2-oxoethyl)thio)-3a,4,5,6,7,7a-hexahydro-1H-benzo[d]imidazol-3-ium chloride]",> 10
2,"CC(C)(C)OC(=O)N1CCN(C(=O)CSC2=N[C@@H]3CCCC[C@H]3N2)CC1 (racemic) [TTC-08, (±)-trans-2-((2-(4-(tert-butoxycarbonyl)piperazin-1-yl)-2-oxoethyl)thio)-3a,4,5,6,7,7a-hexahydro-1H-benzo[d]imidazol-3-ium chloride]",> 10

# Same assay, conditions: JJN3 cells, 24 hr treatment
row,SMILES,cell death by annexin V/PI
1,"O=C(CSC1=N[C@@H]2CCCC[C@H]2N1)N1CCOCC1 (racemic) [TTC-01, (±)-trans-2-((2-morpholino-2-oxoethyl)thio)-3a,4,5,6,7,7a-hexahydro-1H-benzo[d]imidazol-3-ium chloride]",induces cell death
